Experimental data taken from patent US9732088B2, “C2-carbocyclic iminothiazine dioxides as BACE inhibitors, compositions, and their use” (Merck Sharp & Dohme Corp., priority 2014, dated 2017).

Experiments:
BACE-1 = BACE-1 (Homo sapiens (Human), UniProt P56817); experiment: BACE-1 Cellular Assay (Aβ in HEK293-APPswe/lon cells); type: cell-based; details: 4 hours
Experimental: Assay 3: BACE-1 Cellular Assay
Certain compounds of the invention, identified in the tables herein, were determined to be potent inhibitors of BACE-1 in the following cellular assay. HEK293 cells are obtained from the American Type Culture Collection (ATCC) and stably transfected with the human amyloid precursor protein cDNA containing the FAD Swedish (enhances β-secretase processing) and London (enhances Aβ42 cleavage) mutations. A HEK293 stable clone with Aβ expression (HEK293-APP^swe/lon) is identified and maintained at 37° C., 5% CO2 in the ATCC-recommended growth media supplemented with hygromycin. […] Aβ40 or Aβ42 are measured in 15 μl of media using a mesoscale based ELISA assay. Full length Aβ40 and Aβ42 peptides are captured with the N-terminal specific biotinylated-WO2 monoclonal antibody and detected using either the ruthenylated Aβ40 C-terminal specific monoclonal antibody, G2-10 or the ruthenylated Aβ42 C-terminal specific monoclonal antibody G2-11 respectively. Raw electrochemiluminescnce values are measured using a Mesoscale Sector Imager plate reader and are plotted as a function of compound concentration. IC50 values are interpolated from the data using nonlinear regression analysis (Sigmoidal dose response fit with variable slope) of the data using GraphPad Prism software.

CSF Aβ40 = experiment: Aβ Reduction In Vivo (rat CSF Aβ40); details: male CD IGS rats, 10 mg/kg oral gavage, CSF at 3 hours, change vs vehicle
Experimental: Assay 5: Aβ Reduction In Vivo
The in vivo efficacy and/or potency of BACE inhibitors (test compounds) can be evaluated using a variety of animal models, including mouse, rat, dog, and monkey, and these animals can be wild type, transgenic, or gene knockout animals.
Generally, animals are administered (by oral gavage, intravenous injection, or by other suitable route) a test compound in doses ranging from, for example, 0.1 mg/kg (mg of compound per kg of animal body weight) to 100 mg/kg formulated in vehicles, such as cyclodextrin, phosphate buffer, hydroxypropyl methylcellulose or other suitable vehicles. One to twenty-four hours following the administration of compound, animals are sacrificed, and tissues (for example, brain, cerebrospinal fluid (CSF), and/or plasma) are collected for analysis of Aβ levels and/or test compound concentrations (Dovey et al., 2001, Journal of Neurochemistry, 76, 173-181). Tissue samples are processed appropriately and then analyzed for the presence of Aβ by specific sandwich ELISA assays based on electrochemiluminescence (ECL) technology.
For example, in the following assay for which data are reported below, male CD IGS rats (body weight approximately 120 g, Charles River Laboratories, Kingston, N.Y.) were used to assess lowering of CSF levels of Aβ1-40 (Aβ40) in the presence of compounds of the invention. At time 0, animals were administered by oral gavage a test compound at a dose of 10 mg/kg in 20% hydroxypropyl-β-cyclodextrin (dosing volume 5 mL/kg). A separate group of animals received 20% hydroxypropyl-β-cyclodextrin alone to serve as the vehicle control group. Three hours after administration, the rats were euthanized with excess CO2. Immediately following euthanasia, CSF was collected from the cisterna magna and quickly frozen on dry ice. Samples were stored at −80° C. until quantification of Aβ40 levels.
The measurement of endogenous rat Aβ40 in CSF relied on the 585 antibody (Ab585, BioSource, NONO585), which specifically recognizes the N-terminal sequence of rodent Aβ40, and on the monoclonal antibody, G2-10, which specifically recognizes the free C-terminus of Aβ40. Ab585 was labeled with biotin (b-Ab585) by first dialyzing the antibody sample extensively versus PBS (pH 7.8) to remove impurities, followed by dilution to between 1 and 2 mg/mL protein concentration. EZ-Link Sulfo-NHS-LC-Biotin (Pierce) was dissolved in PBS (pH 7.8) at a concentration of 1 mg/mL immediately prior to use. Ab585 was labeled with EZ-Link Sulfo-NHS-LC-biotin using a 10:1 biotin:antibody ratio by incubation at room temperature for 1 hour. The labeling reaction was quenched by addition of 1.0 M glycine to a final concentration of 0.1 M followed by 10 minute incubation at room temperature. Glycine was removed by extensive dialysis versus PBS.
For rat CSF Aβ40 determinations, a calibration curve of various concentrations of synthetic rodent Aβ40 was assayed in parallel with rat CSF samples in duplicate using an avidin-coated 96-well MSD plate (Mesoscale Diagnostics). Either 50 μL of rodent Aβ40 standards diluted in PBS (pH 7.4) supplemented with 1% BSA and 1% Tween-20 (standard diluent buffer) or 40 μL of standard diluent buffer plus 10 μL rat CSF were added to each 96 well avidin-coated plate. To each well was added 50 μL of 0.1 M HEPES (pH 7.5), 2% BSA, 2% Tween-20, 0.3 M NaCl (2×Aβ40 buffer) supplemented with the b-Ab585 capture and ruthenylated-G2-10 detection antibodies diluted to 1 μg/mL and 0.5 μg/mL, respectively. Plates were shaken for 1 min on a microplate shaker, covered to protect from light and incubated overnight (˜16 h) at 4° C. For detection, plates were first washed twice with 100 μL of 1×CSF Aβ40 buffer followed by addition of 160 μL of 1×MSD read buffer-T (Mesoscale Diagnostics) diluted in 1×CSF Aβ40 buffer. Plates were read on a MSD Sector Imager 2400 model (Mesoscale Diagnosotics). […]

rat Mdr1a (P-gp) = rat Mdr1a (P-gp) (Rattus norvegicus, UniProt Q6PSM0); experiment: P-Glycoprotein (P-gp) Efflux Susceptibility Assay; type: in vitro ADME; details: LLC-PK1, pH 7.4; rat LLC-Mdr1a cells, B-A/A-B Papp ratio at 3 h; method 0.1 μM; read-out: P-gp efflux assay (rMDR1a BAAB)
Experimental: Assay 6: P-Glycoprotein (P-Gp) Efflux Susceptibility Assay
As P-gp is expressed at the blood-brain-barrier, among other tissues, lower P-gp efflux ratio values are associated with a better ability to cross the blood-brain-barrier to reach the site of BACE-1 expression in the central nervous system. P-gp efflux ratios are measured in cellular assays using cell lines that express P-gp from a number of species including rat, monkey, and human. The following assay was used to measure the rat P-gp efflux ratios, which are believed to be the most sensitive measure of P-gp susceptibility, for the compounds of the invention (test compounds) reported in the tables below.
The bidirectional transport of test compounds was conducted across pig kidney epithelial (LLC-PK1) cell monolayers. Native LLC-PK1 cells were obtained from The Netherlands Cancer Institute (Amsterdam, The Netherlands), and used under a license agreement. LLC-PK1 cells expressing a cDNA encoding rat Mdr1a (rat LLC-Mdr1a) were made in-house by stable transfection of LLC-PK1 cells with a rat MDR1 cDNA. LLC-PK1 and rat LLC-Mdr1a cell lines were cultured in 96-well transwell culture plates. […] Substrate solution (150 μL) was added to either the apical (A) or the basolateral (B) compartment of the culture plate, and buffer (150 μL; HBSS, 10 mM HEPES, pH 7.4) was added to the compartment opposite to that containing the compound. At t=3 h, 50 μL samples were removed from both sides of monolayers dosed with test compound and placed in 96 well plates, internal standard (50 μL 1 μM labetolol) was added to the samples. Samples were analyzed by LC/MS/MS using an Applied Biosystems SCIEX API 5000 triple quadruple mass spectrometry (Concord, ON, Canada) with a TurbolonSpray ion source in the positive ion mode. A Thermo Scientific Transcend LX-2 system (Franklin, Mass.) was coupled to the API 5000 with a flow rate of 800 μL/min to direct sample into the mass spectrometer. A Waters ACQUITY UPLC T3 (2×30 mm, 1.7 μm; Milford, Mass.) column was used for sample analysis. Mobile phase A consisted of 0.1% formic acid in water. Mobile phase B was acetonitrile with 0.1% formic acid. A gradient elution program was utilized where the solvent composition was held at 5% B for 0.25 min, changed from 5% B to 95% B at 0.25 min, and followed by holding at 95% B for 0.5 min, then, went back to 5% B at 0.75 min. The column was then re-equilibrated at the original solvent composition for 0.5 min. Mass spectrometric detection was accomplished by multiple reaction monitoring (MRM) of transitions unique to each compound. Sample concentration was obtained by extrapolation from the standard curve. Verapamil (1 μM) was used as the positive control to assess the functional activity of Pgp. The experiment was performed in triplicate.
The Papp was calculated by the following formula for samples taken at t=3 h:
[formula] where “Volume of Receptor Chamber” is 0.15 mL, “Area of membrane” is 0.11 cm^2, the “Initial Concentration” is the sum of the concentration measured in the donor compartment plus the concentration measured in the receiver compartment at t=3 h, “Δ in Concentration” is the concentration in the receiver compartment at 3 h, and “Δ in Time” is the incubation time (3×60×60=10800 s). Papp was expressed as 10^−6 cm/s.
The Papp reported in the table below is the average of the Papp for transport from A to B and Papp for transport from B to A at t=3 hr.
The B-A/A-B ratio (BAAB) was calculated by dividing the Papp from B to A by the Papp from A to B at t=3 h: […]

BACE-1, sequence (P56817 46-501): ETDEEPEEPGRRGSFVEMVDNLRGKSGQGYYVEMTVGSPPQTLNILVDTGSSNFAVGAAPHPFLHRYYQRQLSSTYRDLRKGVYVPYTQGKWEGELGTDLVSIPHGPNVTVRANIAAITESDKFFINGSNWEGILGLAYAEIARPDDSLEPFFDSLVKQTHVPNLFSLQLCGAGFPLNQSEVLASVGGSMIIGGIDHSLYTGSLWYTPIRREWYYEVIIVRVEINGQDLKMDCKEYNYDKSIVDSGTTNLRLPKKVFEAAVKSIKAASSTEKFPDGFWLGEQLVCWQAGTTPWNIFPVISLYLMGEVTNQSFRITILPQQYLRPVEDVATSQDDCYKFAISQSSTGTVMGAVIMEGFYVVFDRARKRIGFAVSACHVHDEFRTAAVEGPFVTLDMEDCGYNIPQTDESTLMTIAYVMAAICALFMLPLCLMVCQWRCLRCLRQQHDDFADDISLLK
rat Mdr1a (P-gp), sequence (Q6PSM0 1-1272): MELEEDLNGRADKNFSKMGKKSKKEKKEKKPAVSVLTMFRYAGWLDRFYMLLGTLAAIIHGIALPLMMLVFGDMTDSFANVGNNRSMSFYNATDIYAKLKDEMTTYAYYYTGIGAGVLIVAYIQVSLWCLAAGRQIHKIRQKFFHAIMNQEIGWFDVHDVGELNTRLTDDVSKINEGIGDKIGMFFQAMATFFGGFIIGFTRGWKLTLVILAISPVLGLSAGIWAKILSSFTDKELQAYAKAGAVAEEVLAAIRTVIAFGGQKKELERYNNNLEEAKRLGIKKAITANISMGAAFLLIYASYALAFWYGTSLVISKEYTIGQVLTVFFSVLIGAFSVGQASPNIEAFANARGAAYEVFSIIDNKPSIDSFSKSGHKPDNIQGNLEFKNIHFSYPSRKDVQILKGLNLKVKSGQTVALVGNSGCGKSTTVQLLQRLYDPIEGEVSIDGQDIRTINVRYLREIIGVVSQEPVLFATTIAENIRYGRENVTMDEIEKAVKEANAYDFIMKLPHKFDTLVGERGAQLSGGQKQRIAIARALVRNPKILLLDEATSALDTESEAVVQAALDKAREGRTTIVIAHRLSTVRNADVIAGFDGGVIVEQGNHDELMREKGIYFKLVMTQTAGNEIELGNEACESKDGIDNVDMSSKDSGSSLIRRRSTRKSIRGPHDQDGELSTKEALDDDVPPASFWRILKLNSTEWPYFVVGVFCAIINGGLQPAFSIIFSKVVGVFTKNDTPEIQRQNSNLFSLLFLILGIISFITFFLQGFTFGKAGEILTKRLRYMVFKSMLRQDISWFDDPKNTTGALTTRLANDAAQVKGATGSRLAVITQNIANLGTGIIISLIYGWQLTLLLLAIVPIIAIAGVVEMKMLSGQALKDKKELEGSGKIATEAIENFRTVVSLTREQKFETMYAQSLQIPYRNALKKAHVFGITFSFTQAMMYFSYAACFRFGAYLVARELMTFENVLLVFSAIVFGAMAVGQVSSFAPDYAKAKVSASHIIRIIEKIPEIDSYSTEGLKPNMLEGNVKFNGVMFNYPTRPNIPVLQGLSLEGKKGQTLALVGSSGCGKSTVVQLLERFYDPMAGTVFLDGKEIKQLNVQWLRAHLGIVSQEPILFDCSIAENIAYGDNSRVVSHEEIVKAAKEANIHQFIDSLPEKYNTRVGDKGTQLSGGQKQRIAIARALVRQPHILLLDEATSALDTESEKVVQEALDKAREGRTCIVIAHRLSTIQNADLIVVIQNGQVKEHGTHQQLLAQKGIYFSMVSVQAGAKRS

IC50 (BACE-1) [nM] | efflux ratio at 3 h (rat Mdr1a (P-gp)) | Structure (SMILES) | Aβ reduction in vivo in rat (Δ% CSF Aβ40 @ 10 mpk) (CSF Aβ40) [%]
24 | 6.1 | C[C@@]1(c2cc(Nc3nccc4cc(C#N)cnc34)ccc2F)CS(=O)(=O)[C@@](CF)(C2CC2)C(N)=N1 [Example 1, 8-({3-[(3R,6S)-6-cyclopropyl-6-(fluoromethyl)-5-imino-3-methyl-1,1-dioxidothiomorpholin-3-yl]-4-fluorophenyl}amino)-1,7-naphthyridine-carbonitrile] | −58
10 |  | COc1cnc2c(Nc3cc([C@]4(C)CS(=O)(=O)[C@@](C)(C5CC5)C(N)=N4)c(F)cn3)ccnc2n1 [Example 35, (3R,6S)-5-amino-6-cyclopropyl-3-(5-fluoro-2-((3-methoxypyrido[2,3-b]pyrazin-8-yl)amino)pyridin-4-yl)-3,6-dimethyl-3,6-dihydro-2H-1,4-thiazine 1,1-dioxide] | −75
3.5 |  | COc1cnc2c(Nc3ccc(F)c([C@]4(C)CS(=O)(=O)[C@@](C)(C5CC5)C(N)=N4)c3)ccnc2c1 [Example 36, (3R,6S)-5-amino-6-cyclopropyl-3-(2-fluoro-5-((7-methoxy-1,5-naphthyridin-4-yl)amino)phenyl)-3,6-dimethyl-3,6-dihydro-2H-1,4-thiazine 1,1-dioxide] | −67
